Data on 9 compounds can be found in PubChem BioAssay (NCI).

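Five compound concentrations were applied to cells in 96-well plates for 48 hours; endpoints were derived by simple linear interpolation of the resulting dose-response curve. TGI: concentration producing complete growth inhibition.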

What all share (test): inhibition of tumour cell growth, NCI panel, 48 h
For experiment [1], the system named is UACC-257 melanoma.
Experiment [2] concerns NCI-H522 lung.
Experiment [3] has as its system U251 CNS.
Experiment [4] concerns EKVX NSCLC.
In experiment [5] the test system is NCI/ADR-RES ovarian.
Experiment [6] concerns HOP-92 NSCLC.
For experiment [7], the system named is UO-31 renal.
Experiment [8] has as its system K-562 leukemia.
Experiment [9] has as its system MDA-MB-435.
Experiment [10] has as its system MOLT-4 leukemia.
Experiment [11] deals with HCC-2998 colon.
Experiment [12] relates to SF-539 CNS.
Experiment [13] has as its system NCI-H23 lung.
The test system of experiment [14] is SK-OV-3 ovarian.
Experiment [15] has as its system OVCAR-5 ovarian.
Experiment [16] has as its system ACHN renal.

With `COC(=O)CN=C1NC(=S)N(Cc2ccc(OC)cc2)C12CCCC2`, the TGI in experiment [1], in [2], in experiment [3], in [4], in experiment [5] and in [6] was more than 100 µM each time. For the same compound, the TGI in [7], in experiment [8], in experiment [9], in [10], in [11] and in experiment [12] was more than 100 µM in each case. For the same compound, the TGI in experiment [13], in experiment [14], in experiment [15] and in experiment [16] was more than 100 µM throughout.
Regarding `COc1ccc(Cc2cc(OC)c(OC)c(OC)c2)cc1`, the TGI in experiment [1] was more than 71.8 µM; in [2], 0.798 µM; in experiment [3] it was 34.3 µM; in experiment [4] it was more than 100 µM; in [5], more than 100 µM; in experiment [6], 85.6 µM. Besides, the TGI in experiment [7] is 90.5 µM; in experiment [8], 22 µM; in experiment [9], more than 100 µM; in experiment [10], 23.9 µM; in experiment [11], 1.4 µM; in experiment [12], 1.76 µM. The TGI in [13] was 15.3 µM; in [14], 23.2 µM; in experiment [15], more than 100 µM; in experiment [16], more than 93.3 µM.
With `CC(C)(C)C(O)CC(O)(C(F)(F)F)C(F)(F)F` (stereo not drawn), the TGI in experiment [1], in [2], in experiment [3], in experiment [4], in [5] and in experiment [6] was more than 100 µM each time. For the same compound, the TGI in [7], in [8], in experiment [9], in experiment [10], in experiment [11] and in [12] was more than 100 µM in each case. For the same compound, the TGI in experiment [13], in [14], in experiment [15] and in experiment [16] was more than 100 µM in each case.
With `O=[N+]([O-])c1ccc(Cc2nc3cc4ccccc4cc3[nH]2)cc1C(F)(F)F`, the TGI was 29.5 µM in experiment [1]; 70.6 µM in experiment [2]; 37.3 µM in experiment [3]; more than 100 µM in experiment [4]; 23.9 µM in experiment [5]; 41.1 µM in experiment [6]. Moreover, the TGI in experiment [7] is 40.4 µM; in experiment [8], 30.3 µM; in experiment [9], 21 µM; in [10], 87.7 µM; in [11], 30.1 µM; in [12], 39.1 µM. In addition, the TGI in experiment [13] is 25.7 µM; in experiment [14], 31 µM; in [15] it was 27.5 µM; in experiment [16], 29.3 µM.
Turning to `CCCCCCCCCC(=O)NCCc1c[nH]c2ccc(OC)cc12`, the TGI in experiment [1] stood at 41.8 µM; in experiment [2], 32.1 µM; in experiment [3] it was 31.2 µM; in [4], 89.8 µM; in experiment [5], 38.4 µM; in experiment [6], 31.3 µM. Besides, the TGI was 26.1 µM in [7]; more than 100 µM in experiment [8]; 60.3 µM in experiment [9]; more than 100 µM in experiment [10]; 36.1 µM in experiment [11]; 46 µM in [12]. Also, the TGI was determined as 31.6 µM in experiment [13], 31.7 µM in [14], 61.2 µM in experiment [15] and 30.6 µM in [16].
Regarding `COc1cccc(C2c3cc4c(cc3OC(NNC(N)=O)C2C)OCO4)c1O` (stereo not drawn), the TGI is more than 100 µM in experiment [1]; 10.9 µM in experiment [2]; 34.3 µM in experiment [3]; more than 50.9 µM in experiment [4]; more than 100 µM in experiment [5]; 51.8 µM in experiment [6]. Also, the TGI in [7] is more than 75.3 µM; in [8], more than 100 µM; in [9] it was 0.523 µM; in [10], more than 100 µM; in experiment [11], 35.4 µM; in [12] it was 6.55 µM. Also, the TGI in experiment [13] was more than 100 µM; in [14], more than 100 µM; in experiment [15], more than 100 µM; in experiment [16], more than 44.4 µM.
In the case of `O=c1ccn(Cc2ccccc2CCl)c(=O)[nH]1`, the TGI is 98.8 µM in [1]; 43.9 µM in experiment [2]; 85.2 µM in [3]; 59.6 µM in [4]; 44.4 µM in [5]; more than 100 µM in experiment [6]. Further, the TGI in experiment [7] is 77.3 µM; in [8], more than 100 µM; in [9], 96.5 µM; in experiment [10] it was more than 100 µM; in experiment [11], 59 µM; in experiment [12] it was 52.7 µM. In addition, the TGI is 40.1 µM in [13], more than 100 µM in experiment [14], 37.4 µM in [15] and 75.6 µM in [16].
Consider `CC(=O)c1cc2c(s1)C(=O)c1ccsc1C2=O`, for which the TGI in [1] turned out to be 0.285 µM; in experiment [2] it was 0.486 µM; in experiment [3], 0.785 µM; in [4], 3.24 µM; in experiment [5] it was 2.59 µM; in [6] it was 5.04 µM. Further, the TGI in [7] amounted to 0.597 µM; in experiment [8], 3.57 µM; in [9], 0.226 µM; in experiment [10], 2.17 µM; in [11], 3.17 µM; in [12] it was 0.649 µM. In addition, the TGI in [13] worked out at 0.337 µM; in experiment [14], 5.38 µM; in experiment [15], 2.03 µM; in [16] it was 0.626 µM.
Regarding `CCCCCCc1cc2cc(C(=O)NCc3ccccc3)c(=N)oc2cc1O`, the TGI in [1], in experiment [2], in experiment [3], in experiment [4], in [5] and in [6] was more than 100 µM throughout. Besides, the TGI in experiment [8], in experiment [9], in experiment [10], in experiment [11], in experiment [12] and in [13] was more than 100 µM in each case. The TGI in experiment [14], in experiment [15] and in [16] was more than 100 µM each time.
